Laboratory results as given in ChEMBL document CHEMBL1201862, “PubChem BioAssay data set” (2004).
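Five concentrations, 48 hours, 96-well plates. GI50 = concentration required for 50% inhibition of growth.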 The source made the active and inactive calls. Cut-off read from the data, not from the text of the source: active = GI50 up to about 1.1 µM and inactive = higher.

Tests used:
Assay in all cases: growth of human tumour cells (NCI), 48 h
[1] = test system: DU-145
[2] = test system: RPMI-8226
[3] = test system: 786-0
[4] = test system: MOLT-4
[5] = test system: ACHN
[6] = test system: HOP-62
[7] = test system: UO-31
[8] = test system: IGROV-1
[9] = test system: PC-3
[10] = test system: SK-MEL-2
[11] = test system: UACC-257
[12] = test system: CCRF-CEM
[13] = test system: NCI-H460
[14] = test system: OVCAR-5
[15] = test system: EKVX
[16] = test system: SF-268
[17] = test system: A498
[18] = test system: M14
[19] = test system: U-251
[20] = test system: MDA-MB-435

Row | SMILES | GI50 [1] | GI50 [2] | GI50 [3] | GI50 [4] | GI50 [5] | GI50 [6] | GI50 [7] | GI50 [8] | GI50 [9] | GI50 [10] | GI50 [11] | GI50 [12] | GI50 [13] | GI50 [14] | GI50 [15] | GI50 [16] | GI50 [17] | GI50 [18] | GI50 [19] | GI50 [20]
1 | O=C(O)CN1CCNCCN(CC(=O)O)CCNCC1 | > 100 µM (inactive) | 6.31 µM (inactive) | > 42.2 µM (inactive) | 5.14 µM (inactive) | > 100 µM (inactive) | > 100 µM (inactive) | > 100 µM (inactive) | 24.3 µM (inactive) | 19.9 µM (inactive) | > 100 µM (inactive) | > 73.3 µM (inactive) | 4.8 µM (inactive) | 8.49 µM (inactive) | > 85.1 µM (inactive) | > 60.3 µM (inactive) | > 100 µM (inactive) | 50 µM (inactive) | > 100 µM (inactive) | 9.06 µM (inactive) | 33 µM (inactive)
2 | CN(C)c1ccc(C(=N/N=C2\C(=O)Nc3ccccc32)c2ccc(N(C)C)cc2)cc1 | 1.91 µM (inactive) | 0.22 µM (active) | 0.859 µM (active) | 0.422 µM (active) | 1.04 µM (active) | 0.933 µM (active) | 2.01 µM (inactive) | 0.303 µM (active) | 1.58 µM (inactive) | 0.248 µM (active) | 24.5 µM (inactive) | 0.935 µM (active) | 0.405 µM (active) | 3.72 µM (inactive) | 5.15 µM (inactive) | 0.942 µM (active) | 1.96 µM (inactive) | 0.348 µM (active) | 0.49 µM (active) | 0.0214 µM (active)
3 | CCC(C)OC(=O)/C(Br)=C1/OC(=O)c2ccccc2-c2ccccc21 (stereo not given) | > 100 µM (inactive) | 22.3 µM (inactive) | 48.6 µM (inactive) | 6.85 µM (inactive) | 40.1 µM (inactive) | 15.9 µM (inactive) | 25.2 µM (inactive) | > 10 µM (inactive) | 31.8 µM (inactive) | 24.2 µM (inactive) | 88.7 µM (inactive) | 4.78 µM (inactive) | 26.2 µM (inactive) | 80 µM (inactive) | > 100 µM (inactive) | 56.4 µM (inactive) | 40.7 µM (inactive) | 32.1 µM (inactive) | > 10 µM (inactive) | 26.9 µM (inactive)
